Measurements published in paper PMC10675073, “Effect of Phenolics from Aeonium arboreum on Alpha Glucosidase, Pancreatic Lipase, and Oxidative Stress; a Bio-Guided Approach” (Pharmaceutics, 2023).

Experiments:
[1] = molecular target: T1, porcine pancreatic lipase (PPL) (Sus scrofa, UniProt P00591); assay: Pancreatic lipase enzyme inhibition (p-NPD); type: biochemical
T1 sequence (P00591 1-450): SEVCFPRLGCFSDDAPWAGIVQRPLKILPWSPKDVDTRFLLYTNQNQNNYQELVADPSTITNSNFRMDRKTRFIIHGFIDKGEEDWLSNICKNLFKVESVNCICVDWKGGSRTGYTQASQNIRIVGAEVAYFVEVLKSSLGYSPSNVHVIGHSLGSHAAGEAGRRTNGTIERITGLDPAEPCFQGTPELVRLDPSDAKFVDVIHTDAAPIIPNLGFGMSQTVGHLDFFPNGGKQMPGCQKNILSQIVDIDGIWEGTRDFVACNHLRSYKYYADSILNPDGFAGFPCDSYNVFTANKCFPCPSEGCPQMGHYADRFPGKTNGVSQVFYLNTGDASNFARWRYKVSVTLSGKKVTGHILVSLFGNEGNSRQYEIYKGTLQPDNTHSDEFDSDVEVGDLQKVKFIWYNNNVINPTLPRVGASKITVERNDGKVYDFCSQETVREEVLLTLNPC
Method: P-nitrophenyl dodecanoate (p-NPD from Sigma Aldrich, St. Louis, MO, USA) was used as the substrate, and porcine pancreatic lipase (PPL) was prepared as previously stated by with minor modification. In sum, 25 μL of prepared samples along with a blank were first incubated with 50 µL of PPL (1 mg/mL) in a Tris-HCl buffer (100 mM, pH 8) for 10 min prior to detecting the PPL activity. Following the addition of […] of p-NPD (10 mM in isopropanol), the reaction was then incubated again at 37 °C for 20 min. using […] of Tris-HCl buffer as a volume diluent.

[2] = Ferric reducing antioxidant power (FRAP) assay
Method: The samples were made in a mixture of methanol: DMSO (10:1) at a concentration of 2 mg/mL, while quercetin rhamnoside was made at a concentration of 0.9 mM. To produce the concentration–response curve, seven concentrations, including 7.812, 15.625, 31.25, 62.5, 125, 250, and 500 µM, were created from a stock solution of 1000 µM concentration of ascorbic acid, the positive control. According to the procedure of Benzie et al., this assay was conducted with minor modifications. It depends on Fe^3+ reduction into Fe^2+ which forms a colored complex with 2,4,6-tris (2-pyridyl)-s-[…] (TPTZ). In brief, in a 96-well plate (n = 3), […] of the sample was combined with […] of freshly made TPTZ reagent (300 mM acetate buffer (pH = 3.6), 10 mM TPTZ in 40 mM HCl, and 20 mM FeCl3, in that order; respectively). The reaction was then allowed to run at room temperature for 30 min while kept in a dark place, and the absorbance was measured at 593 nm. Data are shown as means ± SD [26]. […]

[3] = Metal chelation assay (Ferrozine)
Method: Except for quercetin rhamnoside, all the samples were prepared at a concentration of 0.2 mg/mL in methanol. A stock solution of EDTA (positive control) was made at a concentration of 0.1 mM in water and serially diluted into seven concentrations (80, 70, 60, 50, 40, 20, and 10 μM) for the purpose of creating a concentration–response curve. The method described in [28] was used for the Ferrozine iron metal chelation test, with a few minor adjustments made for microplates. In brief, 50 μL of the sample or substance on a 96-well plate and 50 μL of acetate buffer pH = 6 (n = 6) were combined with 20 μL of newly produced ferrous sulphate (0.3 mM in acetate buffer pH = 6). Then, each well received 30 μL of Ferrozine (0.8 mM in acetate buffer, pH = 6). For 10 min, the reaction mixture was incubated at room temperature. At the completion of the incubation period, the FluoStar Omega microplate reader was used to measure the reduction in the intensity of the produced color. The following equation describes how data are expressed as means ± SD:% Inhibition = [(Average Absorbance of blank − Average Absorbance of Test)/Average Absorbance of blank] × 100
The samples’ antioxidant potential was calculated as μM EDTA equivalents using the linear regression equation.

ABTS assay = details: for % inhibition: standard curve (Figure S11)
Method: In brief, the production of the ABTS radical cation (ABTS•+) involved mixing 5 mL of ABTS aqueous solution (7 mM) with […] of potassium persulfate (140 mM) while the mixture was left at room temperature for 16 h in the dark. […] The absorbance was then measured at 690 nm using a microplate reader (Tecan, USA). According to the following equation, data are shown as means (n = 3) SD:% Inhibition = [(A blank - A sample)/A blank] × 100 Using the linear regression method, the antioxidant effect of the various samples was determined as μM ascorbic acid equivalent.

[4] = molecular target: T2, Saccharomyces cerevisiae α-glucosidase (Saccharomyces cerevisiae, UniProt P53341); assay: α-glucosidase enzyme inhibition (pNPG, colorimetric); type: biochemical; details: pure compounds, read-out: IC50 (Mean ± SE)
T2 construct: purchased Sigma-Aldrich G5003-100UN
T2 sequence (P53341 whole entry): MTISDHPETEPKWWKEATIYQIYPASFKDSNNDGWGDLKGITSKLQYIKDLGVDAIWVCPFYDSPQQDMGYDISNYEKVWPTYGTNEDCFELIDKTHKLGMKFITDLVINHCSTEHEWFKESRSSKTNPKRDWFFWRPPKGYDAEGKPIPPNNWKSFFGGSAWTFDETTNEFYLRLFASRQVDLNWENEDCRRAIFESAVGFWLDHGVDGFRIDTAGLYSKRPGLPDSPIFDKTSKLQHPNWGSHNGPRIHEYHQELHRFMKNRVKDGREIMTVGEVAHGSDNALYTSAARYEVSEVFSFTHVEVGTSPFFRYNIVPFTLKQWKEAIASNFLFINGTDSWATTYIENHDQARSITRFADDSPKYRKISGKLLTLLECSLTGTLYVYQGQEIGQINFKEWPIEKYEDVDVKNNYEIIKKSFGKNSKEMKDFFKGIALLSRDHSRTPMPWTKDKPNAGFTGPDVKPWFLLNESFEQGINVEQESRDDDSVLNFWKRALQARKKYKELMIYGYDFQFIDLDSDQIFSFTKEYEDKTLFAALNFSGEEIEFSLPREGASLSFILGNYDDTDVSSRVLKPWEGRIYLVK
Method: Saccharomyces cerevisiae’s α-glucosidase was utilized (Sigma-Aldrich, St. Louis, MO, USA Cat#G5003-100UN). […] Seven concentrations, comprising 31.25, 62.5, 125, 250, 500, 750, and 1000 µM, were prepared from the buffer. […] Using p-nitrophenyl-D-glucopyranoside (pNPG) as a substrate, the inhibitory activity of α-Glucosidase was evaluated colorimetrically by applying the technique described by Gutiérrez-Grijalva et al. with minor modification. In 96-microwell plates, 25 μL of samples/blank were combined with 50 μL of S. cerevisiae α-glucosidase (0.6 U/mL) in phosphate buffer (0.1 M, pH 7) for 10 min at 37 °C. The mixture was then incubated once again for 5 min at 37 °C after the addition of 25 μL of 3 mM pNPG as a substrate in phosphate buffer (pH 7). Utilizing a microplate reader (Tecan, Männedorf, Switzerland) to measure the release of p-nitrophenol from the pNPG substrate at 405 nm, enzyme activity was ascertained [23]. After determining the absorbance (A), the inhibition % of -glucosidase was determined using the formula:% Inhibition = [(A blank − A sample)/A blank] × 100

[5] = Oxygen radical absorbance capacity (ORAC) assay; details: Table S6; per mM compound
Method: Trolox (positive control) was prepared at 2 mM in MeOH then serially diluted into ten concentrations 1000, 800, 700, 600, 500, 400, 300, 200, 100, and 50 μM for the concentration–response curve construction. The total extract and DCM fractions were made at 0.2 mg/mL in methanol, 100% and 50% were prepared at 0.05 mg/mL in methanol, while quercetin rhamnoside was prepared at a concentration of 0.225 mM in methanol. The assay was carried out using Liang et al.’s (2014) methodology, with minor modifications. In brief, 10 μL of the prepared samples were allowed to sit at 37 °C for 10 min with […] of fluoresceine (100 nM). For the background measurement, fluorescence measurements (485 EX, 520 EM, nm) were carried out three times for a total of 90 s each (range 1, Figure 1). Then, 70 μL of freshly made 2,2′-Azobis (2-amidinopropane) dihydrochloride (AAPH) (300 mM) was added to each well. For 60 min (40 cycles, each lasting 90 sec), the measurement of fluorescence (485 EX, 520 EM, nm) was maintained. The antioxidant impact of the samples was determined as the μM Trolox equivalent using the linear regression equation, and the data are shown as means (n = 3) SD.

CC1OC(Oc2c(-c3ccc(O)c(O)c3)oc3cc(O)cc(O)c3c2=O)C(O)C(O)C1O (stereo not drawn) [Quercetin-3-rhamnoside, quercetin-3-O-α-rhamnoside]
inhibition at 500 µM ([1]; 500 µM, read-out: % Inhibition (Mean ± SD)): 19.1 ± 0.34%
IC50 ([1]; pure compounds, read-out: IC50 (µM) (Mean ± SE)): > 500 µM
Trolox equivalent per mM sample ([2]; Table S5, FRAP): 1681.23 µM TE/mM sample
FRAP antioxidant activity, Trolox equivalent ([2]; per mM compound): 1681.2 ± 49.9 μmolar TE/mM
EDTA equivalent per mM sample ([3]; Table S7): 377.98 µM eq/ mM sample
Metal chelation activity, EDTA equivalent ([3]; per mM compound): 377.98 ± 10.17 μmolar EDTAE/mM
ABTS antioxidant activity, ascorbic acid equivalent (ABTS assay; per mM compound): 1338.1 ± 81.38 μM AAE/mM
IC50 [4]: 126.4 ± 1.04 µM
Antioxidant activity using ORAC assay [5]: 25258.39 µMT eq/mM

O=C1O[C@H]([C@@H](O)CO)C(O)=C1O [ascorbic acid]
% inhibition (ABTS assay; 7.8125 µM): 2.8930%
% inhibition (ABTS assay; 15.625 µM): 3.7803%
% inhibition (ABTS assay; 31.25 µM): 5.5156%
% inhibition (ABTS assay; 62.5 µM): 9.7291%
% inhibition (ABTS assay; 125 µM): 16.88%
% inhibition (ABTS assay; 250 µM): 33.5451%
% inhibition (ABTS assay; 500 µM): 62.86%
